{"source": "paper PMC10376691", "about": "“Inhibition of Acetylcholinesterase and Amyloid-β Aggregation by Piceatannol and Analogs: Assessing In Vitro and In Vivo Impact on a Murine Model of Scopolamine-Induced Memory Impairment” (Antioxidants, 2023)", "key": {"[1]": {"biological_target": "T1, recombinant human AChE (Homo sapiens, UniProt P22303)", "T1 construct": "purchased R&D Systems Inc. (Minneapolis, MN, USA)", "T1 sequence (P22303 32-614)": "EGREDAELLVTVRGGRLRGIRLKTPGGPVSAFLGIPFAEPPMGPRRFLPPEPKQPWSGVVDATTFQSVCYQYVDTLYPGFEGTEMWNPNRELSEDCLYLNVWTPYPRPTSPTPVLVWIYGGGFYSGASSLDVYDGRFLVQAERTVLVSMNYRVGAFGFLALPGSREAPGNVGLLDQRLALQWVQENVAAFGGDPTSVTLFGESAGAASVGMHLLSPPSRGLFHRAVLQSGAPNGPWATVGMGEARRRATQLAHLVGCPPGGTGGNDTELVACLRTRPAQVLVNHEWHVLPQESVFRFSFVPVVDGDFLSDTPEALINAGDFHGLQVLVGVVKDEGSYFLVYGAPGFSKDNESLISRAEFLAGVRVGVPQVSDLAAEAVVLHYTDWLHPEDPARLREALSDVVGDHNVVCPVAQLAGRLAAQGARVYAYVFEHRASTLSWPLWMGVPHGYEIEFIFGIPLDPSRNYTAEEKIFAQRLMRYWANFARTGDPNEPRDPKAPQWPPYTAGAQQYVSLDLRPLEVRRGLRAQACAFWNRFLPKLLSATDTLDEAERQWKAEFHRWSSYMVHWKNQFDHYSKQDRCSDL", "assay": "AChE inhibitory activity in vitro (acetylthiocholine/DTNB)", "assay_type": "biochemical", "procedure": "Commercially synthesized acetylthiocholine iodide was hydrolyzed using AChE to release thiocholine, which was coupled with DTNB to generate the yellowish 5-thio-2-nitrobenzoate for in vitro AChE activity assays. For the AChE inhibitory activity assay, each analog was dissolved in the DMSO, and final concentrations of 100, 200, and 500 μM were used for comparisons. An equal volume of DMSO instead of the sample solution was used in the blank group and expressed as 100% AChE activity. […] AChE inhibition (%) was calculated as follows: [(A405blank − A405sample)/(A405blank)] × 100%."}, "[2]": {"test_system": "db/db mice", "conditions": "oral 50 mg/kg for 2–3 weeks; cited from earlier work"}}, "data": [{"smiles": "Oc1cc(O)cc(C=Cc2ccc(O)c(O)c2)c1", "note": "[PIC, 3,5,3′,4′-tetrahydroxystilbene]", "values": [{"measurement": "IC50", "setting": "[1]", "result": 282, "unit": "µM"}, {"measurement": "AChE inhibitory capacity, fold higher than that of RSV", "setting": "[1]; vs RSV", "result": 1.23, "unit": "fold"}, {"measurement": "blood glucose levels", "setting": "[2]", "result": "reduce blood glucose levels"}]}]}
